From paper PMC13310753, “Discovery of actinomycin derivatives with improved selectivity against malaria parasites from a Streptomyces culture library” (The Journal of Antibiotics, 2026)
Read-outs that look alike come from different tables or passages of the source. Numbered stars: 1 amine (or outer) side, 2 acyl side, 3 side chain; on linkers, the order of the positions; unused ones are H or OH. Bridge positions count the residues as written; N and C are the ends. Square brackets hold non-standard residues; d marks the D form. Peptide text beside a SMILES is read from it. I, II: the chains in the order shown. Actinocin(1to9) = Cc1c2oc3c(C)ccc(C(=O)[*:2])c3nc-2c(C(=O)[*:1])c(N)c1=O; Actinocin(9to1) = Cc1c2oc3c(C)ccc(C(=O)[*:1])c3nc-2c(C(=O)[*:2])c(N)c1=O; Pro(4-oxo) = O=C1CN[C@H](C(=O)O)C1; Hyp = O=C(O)[CH]1C[CH](O)CN1; NMeV = CN[CH](C(=O)O)C(C)C; Sar = CNCC(=O)O

How the values were obtained:
[1] = Cytotoxicity assay (Alamar Blue), primary adult mouse brain cells; assay type: cell-based; details: AMB cells, two independent experiments in duplicate wells, read-out: CC50 (50% cytotoxic concentration)
Procedure: (§1) Malarial parasite cultures and AMB cells were previously described. The detailed experimental procedure is described in the Supplementary data. Antimalarial activity and cytotoxicity were evaluated at 50% inhibitory concentration (IC50) and 50% cytotoxic concentration (CC50), respectively. We here analyzed these activities on purified actinomycin X2 (1), actinomycin X0ß (2), and commercially available actinomycin D (3). The SI is calculated as CC50/IC50.
(§2) Blood stages of P. falciparum 3D7 cell lines were provided by Nagasaki University with support in part by NEKKEN Bio-Resource Center (NEKKEN BRC), Institute of Tropical Medicine, Nagasaki University as a part of National BioResource Project (NBRP), MEXT, Japan. Human erythrocytes used for parasite culture were obtained from the Japan Red Cross Society (Registration No. 28J0060). The 3D7 parasites were cultivated in O+ erythrocytes in 2% hematocrit in Roswell Park Memorial Institute (RPMI) 1640-based complete medium (CM) supplemented with 5% AB+ human serum (prepared from plasma), 0.25% AlbuMax I (Gibco, Waltham, MA), 12.5 µg/mL gentamycin, and […] hypoxanthine […]
Primary adult mouse brain (AMB) cells were isolated and established at the NEKKEN Bio-Resource Center, according to previously established methods (Ref. 2). Briefly, the primary cells, which were passaged several times to be adapted to in vitro conditions, were maintained in Minimum Essential Medium (MEM) (Wako Pure Chemicals Industrial Ltd, Osaka, Japan) supplemented with 10% fetal bovine serum (FBS), penicillin/streptomycin solution (100 units/mL penicillin G and […] streptomycin sulfate) (Wako Pure Chemicals Industrial Ltd) and incubated at 37°C and 5% CO2. For the cytotoxicity assay, primary cells that had completed three passages were used. […]
SYBR Green – I (Lonza, Rockland, ME) assay technique was used to detect the parasite DNA. […] The relative fluorescence units (RFU) per well were then determined at 485–515 nm (filter) for 0.1 sec per exposure using a multilabel plate reader (ARVO 1430; Perkin Elmer, Waltham, MA, USA). […]

P. falciparum strain 3D7 = test: microbe, parasite or virus in culture; assay type: cell-based, Plasmodium falciparum; details: for SI, selectivity index (CC50/IC50): CC50 in AMB cells / IC50 against 3D7; for IC50: Plasmodium falciparum, 3D7, 48 h, read-out: IC50 (50% inhibitory concentration), in vitro antimalarial activity; for antimalarial activity of purified components (in words): bioassay during purification using P. falciparum strains 3D7 and Dd2
Procedure: as §1, §2
Primary adult mouse brain (AMB) cells were isolated and established at the NEKKEN Bio-Resource Center, according to previously established methods (Ref. 2). Briefly, the primary cells, which were passaged several times to be adapted to in vitro conditions, were maintained in Minimum Essential Medium (MEM) (Wako Pure Chemicals Industrial Ltd, Osaka, Japan) supplemented with 10% fetal bovine serum (FBS), penicillin/streptomycin solution (100 units/mL penicillin G and […] streptomycin sulfate) (Wako Pure Chemicals Industrial Ltd) and incubated at 37°C and 5% CO2. For the cytotoxicity assay, primary cells that had completed three passages were used.
Antimalarial growth inhibition assays
The antimalarial growth inhibition assay to determine 50% inhibition concentration (IC50) of compounds was performed as described before, with a minor modification (Ref. 3).
Briefly, The P. falciparum cultures (0.75% parasitemia and 2% hematocrit) were seeded on a 96-well black plate with the clear bottom (Thermo Fisher Scientific, Rochester, NY) and […]
exposed to compounds serially diluted threefold over a concentration range of 2.5 µg/mL to 0.13 ng/mL at the final concentration. As a result of the dose-response assay, IC50 value, the concentration of drug required to reduce parasites by 50% (10(log(A/B) × (50 ‒ C)/(D ‒ C) + log(B)) was obtained, where A represents the lowest concentration at which the percentage inhibition was greater than 50%, B is the highest concentration value at which the percentage inhibition was less than 50%, C is the percentage inhibition value of the sample at concentration B, and D is the percentage inhibition value of the sample at concentration A.
The culture plates were kept at 37°C under mixed gas (5% O2, 5% CO2, and 90% N2) for 48 hrs. Each in vitro experiment was performed in duplicate wells and repeated twice. The parasite growth inhibition was obtained by dividing the test samples' parasitemia by the negative controls' average.
SYBR Green – I (Lonza, Rockland, ME) assay technique was used to detect the parasite DNA. The RBCs were lysed after 48 hrs of incubation by adding 100 µL of lysis buffer (20 mM Tris, 10 mM EDTA, 0.01% saponin (wt/vol), and 0.1% Triton X-100 (vol/vol), pH 7.5) and 1× final concentration of SYBR Green - I into each well. The plates were incubated at room temperature for 1 hr with gentle agitation. The relative fluorescence units (RFU) per well were then determined at 485–515 nm (filter) for 0.1 sec per exposure using a multilabel plate reader (ARVO 1430; Perkin Elmer, Waltham, MA, USA).
Cytotoxicity assay was performed to determine 50% cytotoxic concentration (CC50) as previously described with minor modification (Ref. 4). Briefly, AMB cells (1×10^4 cells) were seeded in a 96-well plate (black plate with a clear bottom) and incubated at 37°C in a CO2

| Structure (SMILES) | CC50 at 48 h [1] [nM] | SI, selectivity index (CC50/IC50) (P. falciparum strain 3D7) | IC50 (P. falciparum strain 3D7) [nM] | antimalarial activity of purified components (in words) (P. falciparum strain 3D7) | SI value relative to that of actinomycin D (P. falciparum strain 3D7; listed as 1) [fold] | CC50 ([1]; 48 hrs) [nM] | SI value relative to that of actinomycin D (P. falciparum strain 3D7) | IC50 (P. falciparum strain 3D7; P. falciparum 3D7, 48 hrs, two independent experiments in duplicate wells) [nM] | SI value relative to that of actinomycin D (P. falciparum strain 3D7; listed as 2) [fold] |
| --- | --- | --- | --- | --- | --- | --- | --- | --- | --- |
| Cc1c2oc3c(C)ccc(C(=O)N[C@@H]4C(=O)N[C@H](C(C)C)C(=O)N5CCC[C@H]5C(=O)N(C)CC(=O)N(C)[C@@H](C(C)C)C(=O)O[C@@H]4C)c3nc-2c(C(=O)N[C@@H]2C(=O)N[C@H](C(C)C)C(=O)N3CC(=O)C[C@H]3C(=O)N(C)CC(=O)N(C)[C@@H](C(C)C)C(=O)O[C@@H]2C)c(N)c1=O [actinomycin X2] (I: T[dV][Pro(4-oxo)][Sar][NMeV] / II: T[dV]P[Sar][NMeV]; ester I:1-I:C, II:1-II:C; linker I:N-II:N via Actinocin(1to9)) | 6.71 | 27.9 | 0.241 | significant antimalarial activity | 2 | – | – | – | – |
| Cc1c2oc3c(C)ccc(C(=O)NC4C(=O)NC(C(C)C)C(=O)N5CCCC5C(=O)N(C)CC(=O)N(C)C(C(C)C)C(=O)OC4C)c3nc-2c(C(=O)NC2C(=O)NC(C(C)C)C(=O)N3CC(O)CC3C(=O)N(C)CC(=O)N(C)C(C(C)C)C(=O)OC2C)c(N)c1=O (centres unmarked) [actinomycin X0ß] (I: TV[Hyp][Sar][NMeV] / II: TVP[Sar][NMeV]; ester I:1-I:C, II:1-II:C; linker I:N-II:N via Actinocin(1to9); configuration not given here) | – | 106 | – | significant antimalarial activity | – | 818 | seven | 7.69 | 7 |
| Cc1c2oc3c(C)ccc(C(=O)N[C@@H]4C(=O)N[C@H](C(C)C)C(=O)N5CCC[C@H]5C(=O)N(C)CC(=O)N(C)[C@@H](C(C)C)C(=O)O[C@@H]4C)c3nc-2c(C(=O)N[C@@H]2C(=O)N[C@H](C(C)C)C(=O)N3CCC[C@H]3C(=O)N(C)CC(=O)N(C)[C@@H](C(C)C)C(=O)O[C@@H]2C)c(N)c1=O [actinomycin D] (I: T[dV]P[Sar][NMeV] / II: T[dV]P[Sar][NMeV]; ester I:1-I:C, II:1-II:C; linker I:N-II:N via Actinocin(9to1)) | 6.71 | 14.3 | 0.469 | – | – | – | – | – | – |
